From patent US8957062B2, “Substituted cyclopropyl compounds, compositions containing such compounds and methods of treatment” (Merck Sharp & Dohme Corp., priority 2011, dated 2015)

biological target: T1, human GPR119 (Homo sapiens, UniProt Q8TDV5); assay: Measurement of GPR119 signaling (cAMP assay) in cells stably transfected with human GPR119; type: cell-based; conditions: stated in the example text; cAMP stimulation, human GPR119; read-out: GPR119 Human EC50
T1 sequence (Q8TDV5 1-308 limits assumed): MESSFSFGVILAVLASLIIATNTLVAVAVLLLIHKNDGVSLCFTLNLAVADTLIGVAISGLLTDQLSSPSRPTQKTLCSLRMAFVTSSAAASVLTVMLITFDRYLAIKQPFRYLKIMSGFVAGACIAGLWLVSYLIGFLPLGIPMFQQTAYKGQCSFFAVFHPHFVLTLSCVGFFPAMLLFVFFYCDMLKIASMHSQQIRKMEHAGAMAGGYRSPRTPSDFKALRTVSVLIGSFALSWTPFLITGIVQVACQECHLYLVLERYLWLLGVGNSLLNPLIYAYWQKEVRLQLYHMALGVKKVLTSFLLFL
Experimental: Measurement of GPR119 Signaling (Cyclic AMP (cAMP) Assay)
The adenylate cyclase assay was constructed following the LANCE™ cAMP Kit (Perkin Elmer, AD0264) instructions.
The reaction was stopped by incubating with the supplied detection buffer containing the europium chelate of the Eu-SA/Biotin-cAMP tracer for 3 hours. The assay was performed in duplicate in a 384 well plate for duplicate plates and fluorescence was measured at 665 nm. Basal activity was determined using a DMSO control and maximum response was defined as cAMP stimulation produced by an internal agonist control. Standard cAMP concentrations were assayed concurrently for conversion of fluorescence signal to cAMP level. The data was analyzed using 4-parameter curve fit in Microsoft Excel.
Measurement of GPR119 Signaling (cAMP Homogenous Time Resolved Fluorescence (HTRF) Assay)
Chinese hamster ovary (CHO) cell lines stably transfected with the permissive guanine nucleotide binding protein alpha 15 (Gα15) and murine GPR119 were maintained in DMEM media containing FBS, penicillin-streptomycin, puromycin, and G418 (geneticin). […] Agonist activation of the GPR119 receptor was measured in receptor transfected cells described above, treated with compounds of this invention, using a commercial homogenous time resolved fluorescence (HTRF) kit for measurement of cAMP (CisBio, Bedford, Mass.). The assay was performed in 96-well half-volume plates (murine) or 384-well plates (human) following the manufacturers instructions. Briefly, suspended cells were incubated with a dose titration of test compound at RT for 60 min, lysed, and incubated with HTRF reagents for an additional 60 min. The plate was read using an Envision multilabel reader (Perkin Elmer) adjusted to read time resolved fluorescence and the cAMP concentrations were extrapolated from a cAMP calibration curve. […] The concentration of test compound required to stimulate a half-maximal response (EC50), and efficacy as compared to an internal agonist control, was determined from a sigmoidal 4-parameter curve fit of the resulting plot of normalized activity versus compound concentration.

Point of comparison: `CS(=O)(=O)c1ccc(OCC[C@@H]2C[C@@H]2C2CCN(C(=O)OCC3CC3)CC2)nc1` [Example 13, cyclopropylmethyl 4-((1R,2S)-2-(2-(5-(methylsulfonyl)pyridin-2-yloxy)ethyl)cyclopropyl)piperidine-1-carboxylate], EC50 0.3 nM. Against it:
- CCS(=O)(=O)c1ccc(OCC[C@H]2C[C@H]2C2CCN(c3nc(COC)no3)CC2)cc1F (stereo in doubt) [Example 15, 4-((1S,2R)-2-{2-[4-(ethylsulfonyl)-3-fluorophenoxy]ethyl}cyclopropyl)-1-[3-(methoxymethyl)-1,2,4-oxadiazol-5-yl]piperidine] — 28-fold higher, 8.4 nM
- COCc1noc(N2CCC([C@@H]3C[C@@H]3CCOc3ccc(S(C)(=O)=O)cc3F)CC2)n1 (stereo in doubt) [Example 220, 4-((1S,2R)-2-{2-[2-fluoro-4-(methylsulfonyl)phenoxy]ethyl}cyclopropyl)-1-[3-(methoxymethyl)-1,2,4-oxadiazol-5-yl]piperidine] — 3-fold higher, 0.9 nM
- CC(C)COC(=O)N1CCC([C@H]2C[C@H]2CCOc2ccc(-n3cnnn3)cc2)CC1 [Example 1, isobutyl 4-((1R,2S)-2-(2-(4-(1H-tetrazol-1-yl)phenoxy)ethyl)cyclopropyl)piperidine-1-carboxylate] — 5.3-fold higher, 1.6 nM
- CC1(OC(=O)N2CCC([C@H]3C[C@H]3CCOc3ccc(-n4cnnn4)cc3)CC2)CC1 [Example 2, 1-methylcyclopropyl 4-((1R,2S)-2-(2-(4-(1H-tetrazol-1-yl)phenoxy)ethyl)cyclopropyl)piperidine-1-carboxylate] — 3.3-fold higher, 1 nM
- Cc1cc(-n2cnnn2)cnc1OCC[C@@H]1C[C@@H]1C1CCN(C(=O)OC2(C)CC2)CC1 [Example 30, 1-methylcyclopropyl 4-[(1R,2S)-2-(2-{[3-methyl-5-(1H-tetrazol-1 yl)pyridin-2-yl]oxy}ethyl)cyclopropyl]piperidine-1-carboxylate] — 2.3-fold higher, 0.7 nM
- CC1(OC(=O)N2CCC([C@H]3C[C@H]3CCOc3ccc(-n4cncn4)cn3)CC2)CC1 [Example 34, 1-methylcyclopropyl 4-[(1R,2S)-2-(2-{[5-(1H-1,2,4-triazol-1-yl)pyridin-2-yl]oxy}ethyl)cyclopropyl]piperidine-1-carboxylate] — 2.9-fold higher, 0.88 nM
- CC(C)(C)OC(=O)N1CCC([C@H]2C[C@H]2CCOc2ccc(S(C)(=O)=O)cc2)CC1 [Example 35, tert-butyl 4-((1R,2S)-2-{2-[4-(methylsulfonyl)phenoxy]ethyl}cyclopropyl) piperidine-1-carboxylate] — 3-fold higher, 0.9 nM
- COC(=O)N1CCC([C@H]2C[C@H]2CCOc2cc(C#N)nc(C)n2)CC1 [Example 44] — 110-fold higher, 34 nM

same assay, conditions: table column; cAMP stimulation, human GPR119; read-out: GPR119 Human EC50

Point of comparison: `CC1(OC(=O)N2CCC([C@H]3C[C@H]3CCOc3ccc(-n4cnnn4)cc3)CC2)CCC1` [Example 10], EC50 0.3 nM. Against it:
- CC(C)(C)OC(=O)N1CCC([C@H]2C[C@H]2CCOc2ccc(-n3cnnn3)cc2)CC1 [Example 5] — 23-fold higher, 7 nM
- CCOC(=O)N1CCC([C@H]2C[C@H]2CCOc2ccc(-n3cnnn3)cc2)CC1 [Example 6] — 6.7-fold higher, 2 nM
- CCCOC(=O)N1CCC([C@H]2C[C@H]2CCOc2ccc(-n3cnnn3)cc2)CC1 [Example 7] — 2.7-fold higher, 0.8 nM
- O=C(OC1CCC1)N1CCC([C@H]2C[C@H]2CCOc2ccc(-n3cnnn3)cc2)CC1 [Example 8] — 3.3-fold higher, 1 nM
- CC(C)(C)COC(=O)N1CCC([C@H]2C[C@H]2CCOc2ccc(-n3cnnn3)cc2)CC1 [Example 9] — 50-fold higher, 15 nM
- CC(C)OC(=O)N1CCC([C@H]2C[C@H]2CCOc2ccc(-n3cnnn3)cc2)CC1 [Example 11] — 5-fold higher, 1.5 nM
- O=C(OCc1ccccc1)N1CCC([C@H]2C[C@H]2CCOc2ccc(-n3cnnn3)cc2)CC1 [Example 12] — 39-fold higher, 11.8 nM
- CC(C)OC(=O)N1CCC([C@H]2C[C@H]2CCOc2ccc(S(C)(=O)=O)cn2)CC1 [Example 16] — 150-fold higher, 46 nM
- CC(C)(C)OC(=O)N1CCC([C@H]2C[C@H]2CCOc2ccc(S(C)(=O)=O)cn2)CC1 [Example 17] — 19-fold higher, 5.8 nM
- CS(=O)(=O)c1ccc(OCC[C@@H]2C[C@@H]2C2CCN(C(=O)OC3CCC3)CC2)nc1 [Example 18] — within 1.5-fold, 0.4 nM
- CC(C)COC(=O)N1CCC([C@H]2C[C@H]2CCOc2ccc(S(C)(=O)=O)cn2)CC1 [Example 19] — 40-fold higher, 12 nM
- CCOC(=O)N1CCC([C@H]2C[C@H]2CCOc2ccc(S(C)(=O)=O)cn2)CC1 [Example 20] — 73-fold higher, 22 nM
- CC1(OC(=O)N2CCC([C@H]3C[C@H]3CCOc3ccc(S(C)(=O)=O)cn3)CC2)CCC1 [Example 21] — 2-fold higher, 0.6 nM
- CS(=O)(=O)c1ccc(OCC[C@@H]2C[C@@H]2C2CCN(C(=O)OCC3CCC3)CC2)nc1 [Example 22] — 17-fold higher, 5 nM
- CC1(COC(=O)N2CCC([C@H]3C[C@H]3CCOc3ccc(S(C)(=O)=O)cn3)CC2)CC1 [Example 23] — 2-fold higher, 0.6 nM
- CC1(OC(=O)N2CCC([C@H]3C[C@H]3CCOc3ccc(S(C)(=O)=O)cn3)CC2)CC1 [Example 24] — 14-fold higher, 4.2 nM
- CCC1(OC(=O)N2CCC([C@H]3C[C@H]3CCOc3ccc(S(C)(=O)=O)cn3)CC2)CC1 [Example 25] — 7.3-fold higher, 2.2 nM
- CC1(COC(=O)N2CCC([C@H]3C[C@H]3CCOc3ccc(S(C)(=O)=O)cn3)CC2)CCC1 [Example 26] — 2-fold higher, 0.6 nM
- CCS(=O)(=O)c1ccc(OCC[C@@H]2C[C@@H]2C2CCN(C(=O)OC3(C)CC3)CC2)nc1 [Example 27] — 3-fold higher, 0.9 nM
- CCS(=O)(=O)c1ccc(OCC[C@@H]2C[C@@H]2C2CCN(c3nc(C(C)C)no3)CC2)cc1F [Example 28] — 6-fold higher, 1.8 nM
- CCS(=O)(=O)c1ccc(OCC[C@@H]2C[C@@H]2C2CCN(c3nc(C(C)C)no3)CC2)cc1 [Example 29] — 26-fold higher, 7.7 nM
- Cc1cc(-n2cnnn2)cnc1OCC[C@@H]1C[C@@H]1C1CCN(C(=O)OCc2ccccc2)CC1 [Example 31] — 9.3-fold higher, 2.8 nM
- O=C(OCc1ccccc1)N1CCC([C@H]2C[C@H]2CCOc2ccc(-n3cnnn3)cn2)CC1 [Example 33] — 50-fold higher, 15 nM
- CCS(=O)(=O)c1ccc(OCC[C@@H]2C[C@@H]2C2CCN(C(=O)OC3(C)CC3)CC2)cc1 [Example 36] — 48-fold higher, 14.5 nM
- CC1(OC(=O)N2CCC([C@H]3C[C@H]3CCOc3ccc(S(=O)(=O)C4CC4)cc3)CC2)CC1 [Example 37] — 53-fold higher, 16 nM
- CC(C)(C)OC(=O)N1CCC([C@H]2C[C@H]2CCOc2cc(F)c(S(C)(=O)=O)c(F)c2)CC1 [Example 38] — 40-fold higher, 12 nM
- CC(C)OC(=O)N1CCC([C@H]2C[C@H]2CCOc2cc(F)c(S(C)(=O)=O)c(F)c2)CC1 [Example 39] — 22-fold higher, 6.6 nM
- CC(C)OC(=O)N1CCC([C@H]2C[C@H]2CCOc2ccc(S(C)(=O)=O)c(F)c2)CC1 [Example 40] — 7.7-fold higher, 2.3 nM
- CC(C)(C)COC(=O)N1CCC([C@H]2C[C@H]2CCOc2ccc(S(C)(=O)=O)c(F)c2)CC1 [Example 41] — within 1.5-fold, 0.4 nM
- CCS(=O)(=O)c1ccc(OCC[C@@H]2C[C@@H]2C2CCN(C(=O)OC3(C)CC3)CC2)cc1F [Example 42] — 8.3-fold higher, 2.5 nM
- CC1(OC(=O)N2CCC([C@H]3C[C@H]3CCOc3ccc(S(=O)(=O)C4CC4)c(F)c3)CC2)CC1 [Example 43] — 3.3-fold higher, 1 nM
- CCOC(=O)N1CCC([C@H]2C[C@H]2CCOc2cc(C#N)nc(C)n2)CC1 [Example 45] — 12-fold higher, 3.6 nM
- Cc1nc(C#N)cc(OCC[C@@H]2C[C@@H]2C2CCN(C(=O)OC(C)C)CC2)n1 [Example 46] — 4-fold higher, 1.2 nM
- Cc1nc(C#N)cc(OCC[C@@H]2C[C@@H]2C2CCN(C(=O)OC(C)(C)C)CC2)n1 [Example 47] — within 1.5-fold, 0.2 nM
- Cc1nc(C#N)cc(OCC[C@@H]2C[C@@H]2C2CCN(C(=O)OCC(C)C)CC2)n1 [Example 48] — 3.3-fold higher, 1 nM
- Cc1nc(C#N)cc(OCC[C@@H]2C[C@@H]2C2CCN(C(=O)OC3(C)CC3)CC2)n1 [Example 49] — 6.7-fold higher, 2 nM

same assay, conditions: unit inferred; read-out: GPR119 Human EC50

`Cc1nnc(-c2ccc(OCC[C@@H]3C[C@@H]3C3CCN(C(=O)OC(C)(C)C)CC3)cc2F)o1` [Example 50] gave an EC50 of 1.8 nM.
